{
  "source": "paper PMC4065102",
  "about": "(PLoS ONE, 2014)",
  "molecules": {"B1": {"name": "annexin V: Alexa488-conjugated annexin V, apoptosis probe that binds to phosphatidylserine (protein, UniProt P08758 2-320, looked up)", "Annexin A5": "AQVLRGTVTDFPGFDERADAETLRKAMKGLGTDEESILTLLTSRSNAQRQEISAAFKTLFGRDLLDDLKSELTGKFEKLIVALMKPSRLYDAYELKHALKGAGTNEKVLTEIIASRTPEELRAIKQVYEEEYGSSLEDDVVGDTSGYYQRMLVVLLQANRDPDAGIDEAQVEQDAQALFQAGELKWGTDEEKFITIFGTRSVSHLRKVFDKYMTISGFQIEETIDRETSGNLEQLLLAVVKSIRSIPAYLAETLYYAMKGAGTDDHTLIRVMVSRSEIDLFNIRKEFRKNFATSLYSMIKGDTSGDYKKALLLLCGEDD", "modifications": "Alexa488 conjugate"}},
  "key": {"[1]": {"system": "SNU-16 stomach tumor xenografts", "experiment": "Anti-tumor treatment of mice and tumor size/weight measurement", "assay_type": "in vivo", "details": "3 weeks after treatment; cisplatin 5 mg/kg i.p. once per week x2, cetuximab 1.5 mg/kg i.p. twice per week x4; p<0.05, p<0.05, p<0.001 (linear ApoPep-1 group); p<0.05, p<0.01, p<0.001 (cyclic group)", "method": "At 3 weeks after treatment (endpoint of experiments), tumor volumes were measured and tumors were isolated for the weight measurement.\nSNU-16 stomach tumor-bearing mice that were analyzed for imaging signals after the first and second round of treatment were maintained for the measurement of tumor size. […] PBS, phosphate-buffered saline; CPT, cisplatin; CET, cetuximab; CPT+CET, cisplatin plus cetuximab."}, "[2]": {"system": "SNU-16 stomach tumor xenografts", "experiment": "In vivo NIR fluorescence imaging of tumor apoptosis", "parameters": "species or system mice", "details": "for fluorescence intensity at tumor site in cisplatin plus cetuximab group compared to cisplatin alone and cetuximab alone / fluorescence intensity at tumor site in treated groups compared to untreated control group: FPR675-labeled peptide 800 nmol/kg i.v., imaging at 90 min; for fluorescence intensity at tumor site in cisplatin plus cetuximab group compared to cisplatin alone and cetuximab alone: after first and second round, linear: p<0.05/p<0.05 vs cisplatin, p<0.01/not significant vs cetuximab, cyclic: p<0.01/p<0.01 vs cisplatin, p<0.001/p<0.01 vs cetuximab; for fluorescence intensity at tumor site in treated groups compared to untreated control group: groups treated with cisplatin, cetuximab, cisplatin plus cetuximab, after first or second round of treatment, n = 3; for background fluorescence signals in other organs, including the liver and lung: whole body NIR fluorescence images, 90 min after i.v. FPR675-labeled peptide", "description": "Eight-week old female athymic (nu/nu) Balb/c mice were purchased from Orient laboratories (Seongnam, Korea) and were housed under specific-pathogen-free conditions with laboratory chow and water ad libitum. Stomach tumor xenografts were established by subcutaneously injecting 1 x 10^7 SNU-16 cells in 100 µl saline into the right flank. Tumors were allowed to reach 50–60 mm^3 of volume before randomization and initiation of treatment. […] Changes in tumor size were measured over three weeks. Diameters of tumor were measured with automatic caliper. Tumor volumes were calculated using the formula: volume = (length x width x height)/2, where length, width, and height means the longest dimension, shorter dimension parallel to the mouse body, and diameter of tumor perpendicular to the length and width, respectively. Tumor weights were measured after isolation of tumor mass.\nIn vivo NIR fluorescence imaging was performed after the first and second round of treatment. Each treatment group (n = 6) was divided into two subgroups (n = 3) for imaging with linear and cyclic form of ApoPep-1, respectively. Linear and cyclic form of FPR675–labeled ApoPep-1 (1.45 mg/kg and 1.54 mg/kg, respectively; equivalent to 800 nmol/kg for each peptide) was injected through the tail vein into mice. At 90 min after administration, mice were anesthetized and subjected to imaging. NIR fluorescence (typically, between 650 and 1100 nm) is favored for in vivo optical imaging because of its low tissue absorption and deep tissue penetration properties. The excitation/emission wavelength of the FPR675 dye used in this study was 675/698 nm. Images were taken using the eXplore Optix optical imaging system (ART Inc., Montreal, Canada). […] The acquisition time for a whole-body scanning was 15 min per mouse. Fluorescence intensity at region of interest (ROI) was measured using a analysis software provided by the manufacturer (ART Inc.).\nFigure 2 Monitoring of tumor response by in vivo imaging of apoptosis. […] After the first and second round of treatment, linear or cyclic form of FPR675 NIR fluorescence dye-labeled ApoPep-1 was intravenously injected into mice. In vivo NIR fluorescence images were taken at 90 min after administration. (A) (B) Quantification of NIR fluorescence signal intensity of the region of interest (ROI) in groups injected with linear and cyclic ApoPep-1. Bars represent the signal intensity at ROI obtained from three individual mice (mean ± S.D.). Asterisks represent statistical significance compared to PBS. Asterisks on brackets represent significance in difference between the two groups. * p<0.05, ** p<0.01, and *** p<0.001 by one-way ANOVA (n = 3 per group). (C) (D) Representative NIR fluorescence images by the uptake of linear and cyclic ApoPep-1 to tumor were shown. Scale bars represent normalized fluorescence intensity. Circles represent the ROI."}, "[3]": {"experiment": "Stability of peptides in the serum", "assay_type": "in vitro ADME, mice", "details": "mouse serum, 100 µg peptide in 50 µl PBS + 50 µl filtered serum, 37°C, up to 24 h, C18 reverse phase FPLC, absorbance 215 nm, peak identity by MALDI-TOF MS", "description": "Peptide stability in the serum was examined as previously described. Blood from mice was collected and allowed to clot, and then serum was obtained by centrifugation at 4°C twice followed by filtration (0.22 µm pore). Peptide (100 µg in 50 µl of PBS) was incubated with 50 µl of filtered serum at 37°C for the indicated time period. The incubated samples were diluted 100-fold and fractionated by C18 reverse phase FPLC with linear gradient of acetonitrile (Vydac protein and peptide C18, 0.1% trifluoroacetate in water for equilibration, and 0.1% trifluoroacetate in acetonitrile for elution). To confirm the identity of the peak from the profiles of C18 reverse phase FPLC, each peak was collected, vacuum dried, and analyzed by mass spectrometry (MS) using an MALDI-TOF mass spectrometer (Life Technologies, Carlsbad, CA).\nFigure 5 Stability of linear and cyclic ApoPep-1 in the serum. Linear and cyclic ApoPep-1 peptides were incubated with mouse serum at 37°C for the indicated time periods. (A) (B) Linear and cyclic form of ApoPpep-1 samples and mouse serum were fractionated by C18 reverse-phase FPLC. Y axis represents the absorbance unit at 215 nm. Each peptide peak was indicated by an arrow and separable from serum peaks. (C) (D) MS spectrum of the linear and cyclic peptide peak collected from 24 h FPLC fraction and synthetic linear and cyclic ApoPep-1."}, "[4]": {"system": "SNU16 human stomach cancer cell line", "experiment": "In vitro binding of peptides to apoptotic cells (flow cytometry)", "assay_type": "cell-based", "details": "10 µM FITC-conjugated peptide 4°C 1 h, or Alexa488-annexin V 15 min RT", "description": "SNU16 human stomach cancer cell line was purchased from KCLB (Seoul, Korea). […] After treatment, cells were incubated with 10 µM of fluorescein isothiocyanate (FITC)-conjugated linear or cyclic form of ApoPep-1 at 4°C for 1 h. As control, cells were stained with Alexa488-conjugated annexin V (Life technologies, Carlsbad, CA) for 15 min at RT. Percentages of fluorescent (peptide-bound or annexin V-bound) cells were measured by flow cytometry.\nFigure 1 In vitro detection of apoptosis. […] Cells were harvested and incubated with FITC-labeled ApoPep-1 at 4°C for 1 h or with annexin V at room temperature for 15 min. Data represent percentages of apoptotic cells as measured by flow cytometry. (A-C) Percentages of apoptotic cells detected by linear form of ApoPep-1, cyclic form of ApoPep-1, and annexin V, respectively. PBS, phosphate-buffered saline; CPT, cisplatin; CET, cetuximab; CPT+CET, cisplatin plus cetuximab."}},
  "note": "Entries after “also recorded” stand apart in the source; their conditions may differ. Bridges are numbered along the chain shown (N, C = ends). Where no end group is shown, it is not given here.",
  "data": [
    {"molecule": "N.N.[Cl][Pt][Cl]", "note": "[cisplatin]", "values": [
      {"measurement": "tumor volumes compared to untreated control", "setting": "[1]", "result": "reduced tumor volumes"}
    ]},
    {"molecule": "CQRPPR [linear ApoPep-1, Linear (CQRPPR) form of ApoPep-1, histone H1-targeting peptide; used FITC-conjugated or FPR675-labeled]", "values": [
      {"measurement": "fluorescence intensity at tumor site in cisplatin plus cetuximab group compared to cisplatin alone and cetuximab alone", "setting": "[2]", "result": "higher"},
      {"measurement": "fluorescence intensity at tumor site in treated groups compared to untreated control group", "setting": "[2]", "result": "significantly higher"},
      {"measurement": "background fluorescence signals in other organs, including the liver and lung", "setting": "[2]", "result": "Little background fluorescence signals"},
      {"measurement": "amount of peptide remaining in the serum, as calculated by peak area", "setting": "[3]; listed as linear form of ApoPep-1", "result": "not significantly changed up to 24 h; also recorded: stable in the presence of serum until 24 h"}
    ]},
    {"molecule": "CQRPPRC (disulfide 1-7 (inferred)) [cyclic ApoPep-1, cyclic (CQRPPRC, disulfide bonding at amino and carboxy termini) form of ApoPep-1; used FITC-conjugated or FPR675-labeled]", "values": [
      {"measurement": "fluorescence intensity at tumor site in cisplatin plus cetuximab group compared to cisplatin alone and cetuximab alone", "setting": "[2]", "result": "remarkably higher"},
      {"measurement": "fluorescence intensity at tumor site in treated groups compared to untreated control group", "setting": "[2]", "result": "significantly higher"},
      {"measurement": "background fluorescence signals in other organs, including the liver and lung", "setting": "[2]", "result": "Little background fluorescence signals"},
      {"measurement": "amount of peptide remaining in the serum, as calculated by peak area", "setting": "[3]; listed as cyclic form of ApoPep-1", "result": "not significantly changed up to 24 h; also recorded: stable in the presence of serum until 24 h"}
    ]},
    {"molecule": "B1", "values": [
      {"measurement": "percentages of apoptotic cells detected by the probe after treatment with cetuximab", "setting": "[4]; cetuximab 200 µg/ml 24 h", "result": "~40", "unit": "%"},
      {"measurement": "percentages of apoptotic cells detected by the probe after treatment with cisplatin", "setting": "[4]; cisplatin 300 ng/ml 24 h", "result": "approximately 43%"},
      {"measurement": "percentages of apoptotic cells detected by the probe after treatment with cisplatin plus cetuximab", "setting": "[4]; cisplatin 300 ng/ml plus cetuximab 200 µg/ml 24 h", "result": "~45", "unit": "%"}
    ]}
  ]
}
